Laboratory results reported in PubChem BioAssay AID1845213 (Molecular Pharmacology Branch, DTP, NCI, 2023).

Tested on: NCI-H841 complex tumor spheroid viability
Assay: Anticancer human tumor NCI-H841 cell line growth inhibition;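 note: spheroids exposed to compounds for 7 days before readout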;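 for viability, T/C: 100% = DMSO vehicle control wells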
Details: for IC50: curve of first compound; for viability, T/C: stronger effect = lower value
Method in brief: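 Complex tumor spheroids combined malignant cells with endothelial cells and mesenchymal stem cells. DNA-damaging drugs and DNA repair inhibitors were tested alone and in combination, at half-log dilutions down from clinical Cmax (top 10 microM if Cmax unknown), 0.25% DMSO final.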

[1] = second compound 0.003 µM, first compound 0.0316 µM
[2] = second compound 0.003 µM, first compound 0.1 µM
[3] = second compound 0.003 µM, first compound 0.316 µM
[4] = second compound 0.003 µM, first compound 1 µM
[5] = second compound 0.003 µM, first compound 3.16 µM
[6] = second compound 0.003 µM, first compound 10 µM
[7] = second compound 0.00949 µM, first compound 0.0316 µM
[8] = second compound 0.00949 µM, first compound 0.1 µM
[9] = second compound 0.00949 µM, first compound 0.316 µM
[10] = second compound 0.00949 µM, first compound 1 µM
[11] = second compound 0.00949 µM, first compound 3.16 µM
[12] = second compound 0.00949 µM, first compound 10 µM
[13] = second compound 0.03 µM, first compound 0.0316 µM
[14] = second compound 0.03 µM, first compound 0.1 µM
[15] = second compound 0.03 µM, first compound 0.316 µM
[16] = second compound 0.03 µM, first compound 1 µM
[17] = second compound 0.03 µM, first compound 3.16 µM
[18] = second compound 0.03 µM, first compound 10 µM
[19] = second compound 0.0949 µM, first compound 0.0316 µM
[20] = second compound 0.0949 µM, first compound 0.1 µM
[21] = second compound 0.0949 µM, first compound 0.316 µM
[22] = second compound 0.0949 µM, first compound 1 µM
[23] = second compound 0.0949 µM, first compound 3.16 µM
[24] = second compound 0.0949 µM, first compound 10 µM
[25] = second compound 0.3 µM, first compound 0.0316 µM
[26] = second compound 0.3 µM, first compound 0.1 µM
[27] = second compound 0.3 µM, first compound 0.316 µM
[28] = second compound 0.3 µM, first compound 1 µM
[29] = second compound 0.3 µM, first compound 3.16 µM
[30] = second compound 0.3 µM, first compound 10 µM

| SMILES | IC50 (second compound 0.003 µM) | IC50 (second compound 0.00949 µM) | IC50 (second compound 0.03 µM) | IC50 (second compound 0.0949 µM) | IC50 (second compound 0.3 µM) | viability, T/C [1] | viability, T/C [2] | viability, T/C [3] | viability, T/C [4] | viability, T/C [5] | viability, T/C [6] | viability, T/C [7] | viability, T/C [8] | viability, T/C [9] | viability, T/C [10] | viability, T/C [11] | viability, T/C [12] | viability, T/C [13] | viability, T/C [14] | viability, T/C [15] | further results |
| --- | --- | --- | --- | --- | --- | --- | --- | --- | --- | --- | --- | --- | --- | --- | --- | --- | --- | --- | --- | --- | --- |
| CC(C)n1c(=O)n(C)c2cnc3cc(F)c(-c4ccc(OCCCN5CCCCC5)nc4)cc3c21 + CC[C@@]1(O)C(=O)OCc2c1cc1n(c2=O)Cc2cc3c(CN(C)C)c(O)ccc3nc2-1 | < 31.6 nM | < 31.6 nM | < 31.6 nM | < 31.6 nM | < 31.6 nM | 47% | 51.3% | 56.6% | 63.5% | 65.1% | 43.2% | 4.68% | 4.13% | 6.57% | 6.6% | 10.3% | 7.04% | 1.24% | 1.19% | 1.09% | viability, T/C [16]: 1.3%; viability, T/C [17]: 1.9%; viability, T/C [18]: 2.19%; viability, T/C [19]: 2.12%; viability, T/C [20]: 1.53%; viability, T/C [21]: 1.21%; viability, T/C [22]: 1.06%; viability, T/C [23]: 1.07%; viability, T/C [24]: 1.41%; viability, T/C [25]: 2.29%; viability, T/C [26]: 2.08%; viability, T/C [27]: 1.55%; viability, T/C [28]: 0.71%; viability, T/C [29]: 0.65%; viability, T/C [30]: 0.78% |
| CC1COCCN1c1cc(-c2ccnn2C)c2ccnc(-c3ccn[nH]3)c2n1 (stereo not given) + CC[C@@]1(O)C(=O)OCc2c1cc1n(c2=O)Cc2cc3c(CN(C)C)c(O)ccc3nc2-1 | < 31.6 nM | < 31.6 nM | < 31.6 nM | < 31.6 nM | < 31.6 nM | 8.47% | 2.38% | 1.1% | 1.26% | 1.27% | 1.76% | 1.08% | 0.71% | 0.73% | 0.86% | 1.2% | 1.56% | 0.77% | 0.57% | 0.65% | viability, T/C [16]: 0.82%; viability, T/C [17]: 1.08%; viability, T/C [18]: 1.32%; viability, T/C [19]: 0.39%; viability, T/C [20]: 0.37%; viability, T/C [21]: 0.5%; viability, T/C [22]: 0.56%; viability, T/C [23]: 0.78%; viability, T/C [24]: 1.13%; viability, T/C [25]: 0.42%; viability, T/C [26]: 0.41%; viability, T/C [27]: 0.4%; viability, T/C [28]: 0.5%; viability, T/C [29]: 0.54%; viability, T/C [30]: 0.72% |
| COc1cc(C)[nH]c(=O)c1CN1CCc2c(Cl)cc(C(OC)C3COC3)c(Cl)c2C1=O (stereo not given) + CC[C@@]1(O)C(=O)OCc2c1cc1n(c2=O)Cc2cc3c(CN(C)C)c(O)ccc3nc2-1 | 3820 nM | 231 nM | < 31.6 nM | < 31.6 nM | < 31.6 nM | 86.1% | 72.1% | 62.9% | 56.6% | 49.7% | 47.5% | 82.3% | 62.6% | 43.2% | 38.2% | 32.5% | 27.9% | 3.53% | 1.86% | 4.87% | viability, T/C [16]: 2.31%; viability, T/C [17]: 2.71%; viability, T/C [18]: 2.37%; viability, T/C [19]: 1.65%; viability, T/C [20]: 1.4%; viability, T/C [21]: 1.34%; viability, T/C [22]: 1.12%; viability, T/C [23]: 0.95%; viability, T/C [24]: 0.94%; viability, T/C [25]: 1.75%; viability, T/C [26]: 1.53%; viability, T/C [27]: 1.29%; viability, T/C [28]: 0.89%; viability, T/C [29]: 1.03%; viability, T/C [30]: 0.98% |
| COc1ccc([C@@H](O)c2cc(-c3ncnc4cc(N5CCOCC5)ccc34)c(F)cc2Cl)nn1 + CC[C@@]1(O)C(=O)OCc2c1cc1n(c2=O)Cc2cc3c(CN(C)C)c(O)ccc3nc2-1 | 3830 nM | 1220 nM | < 31.6 nM | < 31.6 nM | < 31.6 nM | 95.6% | 95.9% | 94.9% | 86.5% | 58% | 10.6% | 83.1% | 83.6% | 76.3% | 52.6% | 27.9% | 6.04% | 4.02% | 2.47% | 1.69% | viability, T/C [16]: 1.88%; viability, T/C [17]: 1.8%; viability, T/C [18]: 1.21%; viability, T/C [19]: 1.56%; viability, T/C [20]: 1.55%; viability, T/C [21]: 1.96%; viability, T/C [22]: 1.31%; viability, T/C [23]: 0.92%; viability, T/C [24]: 0.89%; viability, T/C [25]: 1.74%; viability, T/C [26]: 1.64%; viability, T/C [27]: 1.32%; viability, T/C [28]: 1.22%; viability, T/C [29]: 0.55%; viability, T/C [30]: 0.42% |
